Results on three compounds are retold here after ChEMBL document CHEMBL1151600, “6-Bromo-3-nitroflavone, a new high affinity benzodiazepine receptor agonist recognizes two populations of cerebral cortical binding sites” (Bioorg Med Chem Lett, 1997).

Calls of active or inactive are those of the source. The rule behind the calls is not given here.

Assay [1] concerns Mus musculus. Nature of the assay: Anxiolytic activity in mice at 100 ug/kg. Type of assay: functional.
Assay [2] has as its target GABA-A receptor; anion channel. Kind of assay: Inhibition of [3H]flunitrazepam [3H]FNZ) binding to GABA-A Benzodiazepine receptor of synaptosomal membranes from rat cerebral cortex. The format is tissue-based.
The target of assay [3] is GABA-A receptor; anion channel. Nature of the assay: Inhibition of [3H]zolpidem binding to GABA-A Benzodiazepine receptor of synaptosomal membranes from rat cerebellum. Type of assay: tissue-based.
In assay [4] the target is GABA-A receptor; anion channel. Nature of the assay: Inhibition of [3H]flunitrazepam [3H]FNZ) binding to GABA-A Benzodiazepine receptor of synaptosomal membranes from rat hippocampus.
Assay [5] has as its system Mus musculus. Kind of assay: Anxiolytic activity in mice at 0.01 to 0.3 mg/kg intraperitoneal administration. The format is functional, organism-based.
Assay [6] has as its target GABA-A receptor; anion channel. Nature of the assay: Inhibition of [3H]flunitrazepam [3H]FNZ) binding to GABA-A Benzodiazepine receptor of synaptosomal membranes from rat striatum.
Assay [7] concerns the target GABA-A receptor; anion channel. Kind of assay: Inhibition of [3H]zolpidem binding to GABA-A Benzodiazepine receptor of synaptosomal membranes from rat cerebral cortex. The format is tissue-based.
Assay [8] has as its target GABA-A receptor; anion channel. Kind of assay: Inhibition of [3H]flunitrazepam [3H]FNZ) binding to GABA-A Benzodiazepine receptor of synaptosomal membranes from rat spinal cord. The format is tissue-based.
Assay [9] has as its target GABA-A receptor; anion channel. Kind of assay: Inhibition of [3H]flunitrazepam [3H]FNZ) binding to GABA-A Benzodiazepine receptor of synaptosomal membranes from rat cerebellum. The format is tissue-based.
Assay [10] has as its target GABA-A receptor; anion channel (Rattus norvegicus) (UniProt O09028+P15431+P18506+P18508+P19969+P20236+P23574+P23576+P28471+P28473+P30191+P62813+P63079+P63138+Q91ZM7+Q9ES14). Kind of assay: Inhibition of [3H]flunitrazepam [3H]FNZ) binding to GABA-A benzodiazepine receptor of cortical membranes +/- 100 uM GABA (Partial agonist).

With `CN1C(=O)CN=C(c2ccccc2)c2cc(Cl)ccc21` [DIAZEPAM], the Anxiolytic activity in the assay on Mus musculus [1] is given as 35.
One may read the Ki as the dissociation constant of the complex between target and ligand, obtained from inhibition or displacement. Take `O=c1cc(-c2ccc([N+](=O)[O-])cc2)oc2ccc(Br)cc12`: in assay [2], affinity was put at a Ki of 220 nM.
With `O=c1cc(-c2cccc([N+](=O)[O-])c2)oc2ccc(Br)cc12`, the inhibitory constant (Ki) in [2] stood at 1.2 nM; in [3], 3 nM; in [4], 9.6 nM; in [6], 9.8 nM; in [7], 3.8 nM; in assay [8] it was 12.7 nM. In assay [9], the Ki stood at 3.6 nM. The Anxiolytic affect result in the assay with Mus musculus [5] was “Active”. Further, the GABA shift in [10] was 1.38.
